Results published in patent publication US9833497B2, “Human originated EGF domain proteins and use of the same” (CHENGDU SOURCEBIO LIMITED-LIABILITY COMPANY, priority 2013, dated 2017).

Experiments:
Format in all cases: cell-based
Citrobacter diversus = assay: MIC against Gram-negative bacteria: Citrobacter diversus; conditions: 5×10^5 CFU/mL
Outline: (§1)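 LB broth cultures at McFarland 0.5, spun down, resuspended, diluted to 5×10^5 CFU/mL final. Two-fold serial dilutions of purified human EGF domain proteins, triplicate. 37° C, 175 rpm shaking. Endpoint: no visible growth.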

E. coli DH5α = assay: Antibacterial activity: MIC and growth curve against E. coli DH5α in 96-well plate; conditions: minimal inhibitory concentration against E. coli DH5α; 96-well plate, 5×10^5 CFU/mL, 37° C., judged after 8 h
Outline: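 Log-phase bacteria (OD600 ~0.5) resuspended in LB at 5×10^5 CFU/mL, exposed to recombinant protein at 50, 25, 12.5 μg/mL final in triplicate, 37 °C shaking at 175 rpm. OD600 read every 30 min; MIC is lowest concentration showing no growth.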

E. coli BL21 = assay: MIC against Gram-negative bacteria: E. coli BL21; conditions: 5×10^5 CFU/mL
Outline: as §1

Klebsiella pneumonia = assay: MIC against Gram-negative bacteria: Klebsiella pneumonia; conditions: 5×10^5 CFU/mL
Outline: as §1

Pseudomonas aeruginosa = assay: MIC against Gram-negative bacteria: Pseudomonas aeruginosa; conditions: 5×10^5 CFU/mL
Outline: as §1

Aeromonas hydrophila = assay: MIC against Gram-negative bacteria: Aeromonas hydrophila; conditions: 5×10^5 CFU/mL
Outline: as §1

Enterobacter cloacae = assay: MIC against Gram-negative bacteria: Enterobacter cloacae; conditions: 5×10^5 CFU/mL
Outline: as §1

Proteus mirabilis = assay: MIC against Gram-negative bacteria: Proteus mirabilis; conditions: 5×10^5 CFU/mL
Outline: as §1

Proteus vulgaris = assay: MIC against Gram-negative bacteria: Proteus vulgaris; conditions: 5×10^5 CFU/mL
Outline: as §1

Moraxella catarrhalis = assay: MIC against Gram-negative bacteria: Moraxella catarrhalis; conditions: 5×10^5 CFU/mL
Outline: as §1

Serratia marcescens = assay: MIC against Gram-negative bacteria: Serratia marcescens; conditions: 5×10^5 CFU/mL
Outline: as §1

[1] = C. diversus, 10 h cultivation at 37° C.
[2] = E. coli BL21, 10 h cultivation at 37° C.
[3] = K. pneumonia, 10 h cultivation at 37° C.
[4] = P. aeruginosa, 10 h cultivation at 37° C.
[5] = A. hydrophila, 10 h cultivation at 37° C.
[6] = E. cloacae, 10 h cultivation at 37° C.
[7] = P. mirabilis, 10 h cultivation at 37° C.
[8] = P. vulgaris, 10 h cultivation at 37° C.
[9] = M. catarrhalis, 10 h cultivation at 37° C.
[10] = S. marcescens, 10 h cultivation at 37° C.
[11] = Citrobacter diversus, 96-well plate, 37° C., 10 h
[12] = E. coli BL21, 96-well plate, 37° C., 10 h
[13] = Klebsiella pneumonia, 96-well plate, 37° C., 10 h
[14] = Pseudomonas aeruginosa, 96-well plate, 37° C., 10 h
[15] = Aeromonas hydrophila, 96-well plate, 37° C., 10 h
[16] = Enterobacter cloacae, 96-well plate, 37° C., 10 h
[17] = Proteus mirabilis, 96-well plate, 37° C., 10 h
[18] = Proteus vulgaris, 96-well plate, 37° C., 10 h
[19] = Moraxella catarrhalis, 96-well plate, 37° C., 10 h
[20] = Serratia marcescens, 96-well plate, 37° C., 10 h

Row | Substance | MIC C. diversus (Citrobacter diversus; 96-well plate, 37° C., 10 h) | MIC (E. coli DH5α) | MIC E. coli BL21 (E. coli BL21; 96-well plate, 37° C., 10 h) | MIC K. pneumonia (Klebsiella pneumonia; 96-well plate, 37° C., 10 h) | MIC P. aeruginosa (Pseudomonas aeruginosa; 96-well plate, 37° C., 10 h) | MIC A. hydrophila (Aeromonas hydrophila; 96-well plate, 37° C., 10 h) | MIC E. cloacae (Enterobacter cloacae; 96-well plate, 37° C., 10 h) | MIC P. mirabilis (Proteus mirabilis; 96-well plate, 37° C., 10 h) | MIC P. vulgaris (Proteus vulgaris; 96-well plate, 37° C., 10 h) | MIC M. catarrhalis (Moraxella catarrhalis; 96-well plate, 37° C., 10 h) | MIC S. marcescens (Serratia marcescens; 96-well plate, 37° C., 10 h) | MIC (μg/mL) C. diversus (Citrobacter diversus; [1]) | MIC (μg/mL) E. coli BL21 (E. coli BL21; [2]) | MIC (μg/mL) K. pneumonia (Klebsiella pneumonia; [3]) | MIC (μg/mL) P. aeruginosa (Pseudomonas aeruginosa; [4]) | MIC (μg/mL) A. hydrophila (Aeromonas hydrophila; [5]) | MIC (μg/mL) E. cloacae (Enterobacter cloacae; [6]) | MIC (μg/mL) P. mirabilis (Proteus mirabilis; [7]) | MIC (μg/mL) P. vulgaris (Proteus vulgaris; [8]) | MIC (μg/mL) M. catarrhalis (Moraxella catarrhalis; [9]) | further results
1 | PRT689 (DNDECADEEPACEGGRCVNTVGSYHCTCEPPLVLDGSQRRCV; listed as Homo sapiens) | 12.5 µg/mL | 100 µg/mL | 25 µg/mL | 12.5 µg/mL | 50 µg/mL | 50 µg/mL | 25 µg/mL | 25 µg/mL | 12.5 µg/mL | 50 µg/mL | 25 µg/mL |  |  |  |  |  |  |  |  |  | 
2 | PRT886 (RGPRCSQPGETCLNGGKCEAANGTEACVCGGAFVGPRCQ; listed as Homo sapiens) |  | 25 µg/mL |  |  |  |  |  |  |  |  |  | 25 µg/mL | 12.5 µg/mL | 12.5 µg/mL | 25 µg/mL | 12.5 µg/mL | 25 µg/mL | 25 µg/mL | 12.5 µg/mL | 12.5 µg/mL | MIC (μg/mL) S. marcescens (Serratia marcescens; [10]): 25 µg/mL
3 | PRT602 (CKCHPQGSVGSSCSRLGGQCQCKPLVVGRCCDRCSTGSYDLGHHGCHP; listed as Homo sapiens) | 50 µg/mL | 50 µg/mL | 12.5 µg/mL | 12.5 µg/mL | 50 µg/mL | 12.5 µg/mL | 50 µg/mL | 50 µg/mL | 25 µg/mL | 12.5 µg/mL | 12.5 µg/mL |  |  |  |  |  |  |  |  |  | 
4 | PRT817 (FGPGCEQRCQCQHGAACDHVSGACTCPAGWRGTFCE; listed as Homo sapiens) |  | 50 µg/mL |  |  |  |  |  |  |  |  |  | 50 µg/mL | 12.5 µg/mL | 25 µg/mL | 50 µg/mL | 25 µg/mL | 12.5 µg/mL | 12.5 µg/mL | 50 µg/mL | 25 µg/mL | MIC (μg/mL) S. marcescens (Serratia marcescens; [10]): 12.5 µg/mL
5 | PRT82 (CDCYPTGSLSRVCDPEDGQCPCKPGVIGRQCDRCDNPFAEVTTNGCEV; listed as Homo sapiens) |  | 25 µg/mL |  |  |  |  |  |  |  |  |  |  |  |  |  |  |  |  |  |  | MIC (μg/mL) C. diversus (Citrobacter diversus; [11]): 50 µg/mL; MIC (μg/mL) E. coli BL21 (E. coli BL21; [12]): 12.5 µg/mL; MIC (μg/mL) K. pneumonia (Klebsiella pneumonia; [13]): 50 µg/mL; MIC (μg/mL) P. aeruginosa (Pseudomonas aeruginosa; [14]): 25 µg/mL; MIC (μg/mL) A. hydrophila (Aeromonas hydrophila; [15]): 12.5 µg/mL; MIC (μg/mL) E. cloacae (Enterobacter cloacae; [16]): 25 µg/mL; MIC (μg/mL) P. mirabilis (Proteus mirabilis; [17]): 12.5 µg/mL; MIC (μg/mL) P. vulgaris (Proteus vulgaris; [18]): 12.5 µg/mL; MIC (μg/mL) M. catarrhalis (Moraxella catarrhalis; [19]): 100 µg/mL; MIC (μg/mL) S. marcescens (Serratia marcescens; [20]): 12.5 µg/mL
6 | PRT1329 (LPAVCTPPCSAHATCKENNTCECNLDYEGDGITCT; listed as Homo sapiens) |  | 12.5 µg/mL |  |  |  |  |  |  |  |  |  |  |  |  |  |  |  |  |  |  | MIC against C. diversus (Citrobacter diversus; [11]): 25 µg/mL; MIC against E. coli BL21 (E. coli BL21; [12]): 50 µg/mL; MIC against K. pneumonia (Klebsiella pneumonia; [13]): 50 µg/mL; MIC against P. aeruginosa (Pseudomonas aeruginosa; [14]): 12.5 µg/mL; MIC against A. hydrophila (Aeromonas hydrophila; [15]): 50 µg/mL; MIC against E. cloacae (Enterobacter cloacae; [16]): 12.5 µg/mL; MIC against P. mirabilis (Proteus mirabilis; [17]): 25 µg/mL; MIC against P. vulgaris (Proteus vulgaris; [18]): 25 µg/mL; MIC against M. catarrhalis (Moraxella catarrhalis; [19]): 12.5 µg/mL; MIC against S. marcescens (Serratia marcescens; [20]): 25 µg/mL
